Assays:
[1] = tested on: Tomato (variety: Rutgers) plants; assay: Tomato transpiration inhibition study (foliar application); type: in vivo; settings: for Transpiration rate (% of control) Average of 3 days after treatment: foliarly applied to tomato leaves; for S-(+)-Abscisic acid doses to achieve 50% inhibition of transpiration / S-(+)-Abscisic acid dose to achieve 50% inhibition of transpiration: foliar, first 3 days after treatment; for S-(+)-Abscisic acid dose to achieve 50% inhibition of transpiration: log-linear regression; for Relative potency: transpiration inhibition
Source text: Efficacy of the preferred composition of the present invention was studied with tomato plants to compare its transpiration inhibition effect against 10% potassium salt of S-(+)-Abscisic acid solution (ABA salt) and technical grade active ingredient of the free acid (S-(+)-Abscisic acid). Tomato (variety: Rutgers) seeds were sown in an 18-cell flat filled with Promix PGX (available from Premier Horticulture Inc. Quakertown, Pa.) for four weeks for germination and initial growth. Plants were then transplanted into pots (18 cm in diameter and 18 cm in height) filled with Promix BX (available from Premier Horticulture Inc. Quakertown, Pa.) and grown for another 5 days before treatment. During growing periods, plants received daily irrigation and weekly fertilizer (1 g/L all purpose fertilizer 20-20-20, The Scotts Company, Marysville, Ohio). S-(+)-Abscisic acid solutions of different, formulations were foliar applied to tomato plant leaves at the rate of 24 mL/6 plants. Plants were then placed in a transparent chamber with humidity controlled at relative humidity 40 to 60%. Leaf transpiration rate was measured 1, 2, 3 or 4 and 7 days after treatment using an AP4 Leaf Porometer (Dynamax, Inc., Houston, Tex.). The transpiration rate of each treatment was calculated as the percentage of that of control at each day to reduce day-to-day variation caused by changes of environmental condition such as light intensity and temperature. The log-linear regression between S-(+)-Abscisic acid doses and the average transpiration rates of first 3 days after treatment was used for calculation of S-(+)-Abscisic acid dose to achieve 50% inhibition of transpiration.

[2] = tested on: Pansy plants; assay: Pansy shelf life extension study (sprench application); type: in vivo; settings: for Days of extended shelf life / S-(+)-Abscisic acid dose (mg) to extend 1 day of shelf life / S-(+)-Abscisic acid dose (mg) to extend 2 days of shelf life: drench and foliar applied; for S-(+)-Abscisic acid dose to extend 1 day shelf life: drench/foliar applied; for S-(+)-Abscisic acid dose (mg) to extend 1 day of shelf life / S-(+)-Abscisic acid dose (mg) to extend 2 days of shelf life: log-linear regression
Source text: Efficacy of the preferred composition of the present invention was also studied with Pansy plants to compare its shelf life extension effect against 10% potassium salt of S-(+)-Abscisic acid solution (ABA salt) and technical grade active ingredient of the free acid (S-(+)-Abscisic acid).
Pansy plants were obtained from local retailers as mature plants. Pansy plants were then transplanted into an 18-cell flat filled with Promix BX (available from Premier Horticulture Inc. Quakertown, Pa.) and grown for 3 days prior to treatment.
Uniform plants were selected for the study. Prior to S-(+)-Abscisic acid treatment, plants were saturated with water and then drained for about two hours. A total of 20 mL S-(+)-Abscisic acid solution, which is equivalent to about 10% of the cell volume, was applied to each plant by soil drench/foliar spray application. In the ornamental industry, this method of chemical application is commonly known as a sprench application. In this study, 17 mL solution was drench applied to root zone and 3 mL solution was foliar applied to canopy. Plants were not watered following the S-(+)-Abscisic acid treatment.
After the S-(+)-Abscisic acid treatment, plants were arranged in a randomized complete block experimental design. The plants were rated daily for the extent of wilting on a scale from 1 for no wilting to 4 for complete wilting. A rating of 2.5 was the point at which a plant was determined to be unmarketable and the previous day was recorded as the shelf life of that plant in days. The log-linear regression between S-(+)-Abscisic acid doses and the extension of shelf life over control plants was used for calculation of S-(+)-Abscisic acid dose to extend 1 day or 2 days of shelf life.

[3] = cited from earlier work
[4] = tested on: canola seed; assay: Canola emergence after seed treatment (S-ABA as ammonium salt solution, 6-benzyladenine technical powder); type: in vivo; settings: for Final emergence (%) / Qrange / T50: 6-BA 0 g/cwt
Experimental: In this example, the effect of the cytokinin 6-benzyladenine on S-(+)-Abscisic acid induced germination delay on Canola was studied. The experiment was set up as an S-(+)-Abscisic acid-dose×BA-dose factorial experiment, with four doses of S-(+)-Abscisic acid (0, 25, 50, and 100 g/cwt) and four doses of 6-benzyladenine (0, 1, 5 and 25 g/cwt) for a total of 16 treatment combinations. The treatments were made up in 1 ml samples of experimental aqueous seed treatment slurry. S-(+)-Abscisic acid was added in the form of a water solution of the ammonium salt. 6-Benzyladenine was added as technical powder. Ten μl Tween® 20 were added to each sample to help wet and suspend the 6-benzyladenine powder. All of the seed treatment slurry samples contained CP-Clear film-forming agent and Color Coat Red (available from Becker Underwood), each at 1 oz/cwt, and 0.167 oz/cwt Maxim XL fungicide (available from Syngenta). The slurry application volume was 40 oz/cwt (cwt means per 100 lbs or 45.4 kgs of seed). Ten gram samples of canola seed were treated with the experimental slurries using a Hege 11 seed treater with a six-inch bowl.
The seed was planted in plastic boxes containing 1 kg of typical agricultural slit loam. One hundred seeds were planted 2 cm deep in each plastic box, and the soil in the box was adjusted to 21% soil moisture (wet-weight basis). Two replications of the experiment were incubated under constant light in a 10° C. chamber. The soil temperature averaged 12.6° C. The boxes were watered up to the correct weight every 1-2 days, and checked for emergence. Counts of seedlings were continued until it became clear that emergence had ceased (28 days). The final count of emerged seedlings was expressed as a percentage of the 100 seeds planted.
The daily counts were converted to proportions of the final emergence of the box, and a Gompertz curve was fitted to the data from each box using SAS Proc NLIN. From the parameters of the model, median emergence time (T50) and quartile range (Qrange) were estimated for each box. Analysis of variance was performed and means calculated for each of the three responses (Final emergence, T50, Qrange).

[5] = relative to S-(+)-Abscisic acid salt = 1
[6] = relative to S-(+)-Abscisic acid = 1

Compound | Transpiration rate (% of control) Average of 3 days after treatment ([1]; ABA dose 1 mg) | Transpiration rate (% of control) Average of 3 days after treatment ([1]; ABA dose 3 mg) | Transpiration rate (% of control) Average of 3 days after treatment ([1]; ABA dose 10 mg) | S-(+)-Abscisic acid doses to achieve 50% inhibition of transpiration [1] [mg/plant] | S-(+)-Abscisic acid dose to achieve 50% inhibition of transpiration [1] [mg] | Days of extended shelf life ([2]; ABA dose 1 mg) [days] | Days of extended shelf life ([2]; ABA dose 3 mg) [days] | Days of extended shelf life ([2]; ABA dose 10 mg) [days] | Days of extended shelf life ([2]; ABA dose 30 mg) [days] | S-(+)-Abscisic acid dose to extend 1 day shelf life [2] [mg/plant] | S-(+)-Abscisic acid dose (mg) to extend 1 day of shelf life [2] [mg] | S-(+)-Abscisic acid dose (mg) to extend 2 days of shelf life [2] [mg] | further results
CC1=CC(=O)CC(C)(C)[C@@]1(O)/C=C/C(C)=C\C(=O)[O-].[K+] [S-(+)-Abscisic acid salt] | 70 % of control | 60 % of control | 50 % of control | 10.13 | 10.13 | 0.50 | 1.17 | 1.50 | 1.83 | 2.83 | 2.83 | 39.83 | Relative potency [1, 5]: 1; Relative potency (1 day) [2, 5]: 1; Relative potency (2 days) [2, 5]: 1
CC1=CC(=O)CC(C)(C)[C@@]1(O)/C=C/C(C)=C\C(=O)O [S-(+)-Abscisic acid] | 73 % of control | 63 % of control | 54 % of control | 15.02 | 15.02 | 0 | 0.67 | 0.83 | 1.67 | 8.68 | 8.68 | 79.62 | Relative potency [1, 6]: 1; highest concentration that can be achieved in pure water ([3]; pure water at room temperature): about 3000 ppm; solubility limit in the tank-mix ([3]; tank-mix): up to 3000 ppm; Relative potency (2 days) [2, 6]: 1; final emergence in words ([4]; S-(+)-Abscisic acid dose of 100 g/cwt): roughly cut in half; Final emergence (%) ([4]; S-ABA 25 g/cwt): 92.3%; Qrange ([4]; S-ABA 25 g/cwt): 3.26 days; T50 ([4]; S-ABA 25 g/cwt): 9.15 days; Final emergence (%) ([4]; S-ABA 50 g/cwt): 68.9%; Qrange ([4]; S-ABA 50 g/cwt): 4.27 days; T50 ([4]; S-ABA 50 g/cwt): 11.20 days; Final emergence (%) ([4]; S-ABA 100 g/cwt): 53.5%; Qrange ([4]; S-ABA 100 g/cwt): 4.27 days; T50 ([4]; S-ABA 100 g/cwt): 12.74 days

Reference: patent publication US9023762B2, “Plant growth regulator compositions, methods of preparation and use thereof” (Valent BioSciences Corporation, priority 2011, dated 2015)
